Experimental data from patent US4703061A, “Gamma-aminobutyric acid derivatives, process for production thereof, and use thereof as medicaments” (priority 1984, dated 1987).
Where a name gives a salt, the structure may show the parent alone.

How the values were obtained:
[1] = test system: planar locomotor activity of mice; test: Effects on planar locomotor activity, automex method; assay type: in vivo, ddY-strain male mice
Experimental: (§1) In Tests 1 to 4 given below, ddY-strain male mice (body weight 20-25 g) were used, and the experiments were carried out in a semi-soundproof, constant-temperature room kept at a temperature of 23±1° C. and a humidity of 55±2%. The mice were allowed to take feed and water freely.
The effects of the test compound on planar locomotor activity of the mice were examined by using an automex activity meter (made by Columbus Company). […] The test compound was intraperitoneally administered to the mice in doses indicated. Immediately then, five mice were put into each of transparent plastic cages (27×17×17 cm), and placed on the automex activity meter. The motor activity for 30 minutes was measured at 5 minutes intervals, and compared with that of the control group.

ddY-strain male mice [2] = test: Irwin's observation method (behavior, nervous, autonomic nervous and toxic symptoms); assay type: in vivo; conditions: 1,000 mg/kg or below, i.p.; vs control group
Excerpt: These mice were also observed for changes in behavior, nervous symptoms, autonomic nervous symptoms, and toxic symptoms in accordance with the Irwin's observation method.

[3] = test system: motor activity induced by atropine; test: Antagonistic effect against atropine (automex method); assay type: in vivo, ddY-strain male mice; conditions: 600 mg/kg i.p. + atropine 30 mg/kg s.c.
Experimental: as §1
Test 4: Antagonistic effect against atropine (automex method)
Each of the test compounds was intraperitoneally administered to mice divided into 6-membered groups, and immediately then, atropine was subcutaneously injected into the mice in a dose of 30 mg/kg. The effect of each test compound on the enhancement of motor activity induced by atropine was examined in accordance with the automex method.

ddY-strain male mice [4] = test: Toxicity test, intraperitoneal (LD50); conditions: 500 mg/kg and 1,000 mg/kg i.p.; result in words
Experimental: (§2) Calcium 4-(3,5-dihydroxy-3-methylpentylamide) butyrate was intraperitoneally administered in doses of 500 mg/kg and 1,000 mg/kg respectively to eight ddY-strain male mice (body weight 20 to 25 g).

in vivo = conditions: mouse, in vivo, ip
Experimental: as §2

[5] = test system: motor activity enhanced by methamphetamine; test: Antagonistic effect against methamphetamine (automex method); assay type: in vivo, ddY-strain male mice; conditions: for Motor activity (total number of counts): 500 mg/kg i.p. + methamphetamine 3 mg/kg s.c.
Experimental: as §1
Test 2: Antagonistic effect against methamphetamine (automex method)
Mice were used in 5-membered groups. Each of the test compounds was intraperitoneally administered to the mice in a predetermined dose, and immediately then, the mice were subcutaneously injected with methamphetamine in a dose of 3 mg/kg. The action of the test compounds on motor activity enhanced by methamphetamine was examined in accordance with the automex method given above.

[6] = test system: sleeping induced by pentobarbital; test: Effect of prolonging the time of sleeping induced by pentobarbital; assay type: in vivo, ddY-strain male mice; conditions: pentobarbital sodium 50 mg/kg s.c.
Experimental: as §1
Test 3: Effect of prolonging the time of sleeping induced by pentobarbital
The effects of the test compounds on sleeping induced by pentobarbital were examined. The disappearance of righting reflex for 5 seconds or more was used as an index of sleeping. Mice were divided into 10-membered groups. Each of the test compounds was intraperitoneally administered to the mice in the doses indicated. Immediately then, pentobarbital sodium salt was subcutaneously injected into the mice in a dose of 50 mg/kg, and the sleeping time was compared with that of a group to which pentobarbital alone was injected (control).

## CC(O)(CCO)CC(=O)NCCCC(=O)O (stereo not drawn) [MV-GABA-Ca salt, calcium 4-(3,5-dihydroxy-3-methylpentylamide) butyrate]
[1]; 500 mg/kg i.p., 5 minutes
  Motor activity (total number of counts): 172 counts
[1]; 500 mg/kg i.p., 10 minutes
  Motor activity (total number of counts): 241 counts
[1]; 500 mg/kg i.p., 15 minutes
  Motor activity (total number of counts): 307 counts
[1]; 500 mg/kg i.p., 20 minutes
  Motor activity (total number of counts): 405 counts
[1]; 500 mg/kg i.p., 25 minutes
  Motor activity (total number of counts): 505 counts
[1]; 500 mg/kg i.p., 30 minutes
  Motor activity (total number of counts): 558 counts
[1]; 1000 mg/kg i.p., 5 minutes
  Motor activity (total number of counts): 91 counts
[1]; 1000 mg/kg i.p., 10 minutes
  Motor activity (total number of counts): 128 counts
[1]; 1000 mg/kg i.p., 15 minutes
  Motor activity (total number of counts): 156 counts
[1]; 1000 mg/kg i.p., 20 minutes
  Motor activity (total number of counts): 177 counts
[1]; 1000 mg/kg i.p., 25 minutes
  Motor activity (total number of counts): 189 counts
[1]; 1000 mg/kg i.p., 30 minutes
  Motor activity (total number of counts): 203 counts
ddY-strain male mice [2]
  changes in behavior, nervous symptoms, autonomic nervous symptoms, and toxic symptoms: no marked difference from the control group could be found
[3]; 5 minutes
  Motor activity (total number of counts): 8 counts
[3]; 10 minutes
  Motor activity (total number of counts): 12 counts
[3]; 15 minutes
  Motor activity (total number of counts): 19 counts
[3]; 20 minutes
  Motor activity (total number of counts): 27 counts
[3]; 25 minutes
  Motor activity (total number of counts): 47 counts
[3]; 30 minutes
  Motor activity (total number of counts): 92 counts
ddY-strain male mice [4]
  death: no case of death
In vivo
  LD50: > 2000 mg/kg
[5]; 5 minutes
  Motor activity (total number of counts): 10 counts
[5]; 10 minutes
  Motor activity (total number of counts): 11 counts
[5]; 15 minutes
  Motor activity (total number of counts): 22 counts
[5]; 20 minutes
  Motor activity (total number of counts): 38 counts
[5]; 25 minutes
  Motor activity (total number of counts): 71 counts
[5]; 30 minutes
  Motor activity (total number of counts): 126 counts
[5]; 500 mg/kg, result in words
  antagonistic effect against the increase of motor activity induced by methamphetamine: markedly inhibited the motor activity of mice enhanced by methamphetamine
[6]; 1000 mg/kg i.p.
  Sleeping time: 62.7 ± 7.5 min
[6]; 2000 mg/kg i.p.
  Sleeping time: 77.2 ± 5.2 min
